Source: patent US20060057181A1, “Method for determining the gastric evacuation using a 13c-labelled test meal” (priority 2002, published 2006)

Assay: 13C-octanoic acid breath test of gastric emptying: 13CO2 excretion in exhaled respiratory air measured by IRMS after test meal
Description: The thus formed ^13CO2 is then measured in the exhaled respiratory air by means of IRMS. IRMS (isotope ratio mass spectrography) has in the meantime become the most sensitive and best method for determining ^13CO2 in the exhaled respiratory air.
Therefore, the sampling and optimum calculation take three to four hours. The interval for sampling is optimal at 15 min.
Further, the patient need not sit calmly between the measuring devices for radioactivity. Rather, it is sufficient if they blow samples of their respiratory air into collecting devices every 12 minutes. For example, the so-called vacutainerss are particularly suitable for this purpose. These samples of the exhaled respiratory air may then be measured and evaluated in a central laboratory with a correspondingly sensitive IRMS equipment.

maximum of 13CO2 excretion (normal gastric emptying (patient No. 1), free 13C-octanoic acid bound to egg yolk, oral test meal, exhaled air, IRMS): > 2.9 h | maximum of 13CO2 excretion (somewhat faster gastric emptying (patient No. 5)): > 2.9 h | maximum of 13CO2 excretion (very delayed gastric emptying (patient No. 4)): < 2.5 h
SMILES: CCCCCCC[13C](=O)O [^13C-octanoic acid]
